The results in this text go back to PubChem BioAssay AID588617 (The Scripps Research Institute Molecular Screening Center, 2011).

This assay addresses Krueppel-like factor 5 (Homo sapiens) (UniProt Q13887). As to the kind of experiment: KLF5 protein abundance by immunoblot – western blot, chemiluminescence, DLD-1 cells, counter-screen for KLF5 inhibitor project, late-stage follow-up (AID 588617). Conditions: 24 h, at 10 µM, active compounds read high. On the technique in general: A western blot detects proteins with antibodies after separation by electrophoresis.

Krueppel-like factor 5 (Homo sapiens), sequence (Q13887 whole entry, looked up): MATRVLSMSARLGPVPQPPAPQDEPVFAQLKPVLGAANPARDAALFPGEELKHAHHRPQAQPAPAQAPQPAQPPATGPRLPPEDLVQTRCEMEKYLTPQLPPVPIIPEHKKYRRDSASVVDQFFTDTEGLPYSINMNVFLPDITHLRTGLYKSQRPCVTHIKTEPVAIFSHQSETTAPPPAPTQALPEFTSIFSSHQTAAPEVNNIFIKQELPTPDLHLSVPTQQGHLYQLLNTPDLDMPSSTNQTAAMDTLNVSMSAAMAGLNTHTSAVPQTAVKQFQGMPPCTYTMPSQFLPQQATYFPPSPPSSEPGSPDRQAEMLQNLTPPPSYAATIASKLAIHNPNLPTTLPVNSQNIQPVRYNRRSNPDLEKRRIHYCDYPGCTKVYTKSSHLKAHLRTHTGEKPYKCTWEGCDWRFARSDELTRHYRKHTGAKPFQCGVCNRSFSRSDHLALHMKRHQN

Take `CN(C(=O)COC(=O)/C=C/c1cccc([N+](=O)[O-])c1)C1CCS(=O)(=O)C1` (stereo unspecified): the inhibition was 30.1%.

What is called inhibition is the relative decrease from the control value, in per cent.
